Values joined by “and” are separate entries in the source; they are usually repeats but may differ in a detail not shown here. Equal values may be shown once. “Also recorded” adds a separate entry of the source. Read-outs that look alike come from different tables or passages of the source.
Key:
hNav1.4 [1] = target: T1, hNav1.4 (Homo sapiens, UniProt P35499); type: cell-based
hNav1.3 [2] = target: T2, hNav1.3 (Homo sapiens, UniProt Q9NY46); type: cell-based
[3] = system: TTX-sensitive Nav channels in mouse DRG neuron; type: cell-based
[4] = system: TTX-resistant Nav channels in mouse DRG neuron; type: cell-based
hNav1.7 [5] = target: T3, hNav1.7 (Homo sapiens, UniProt Q15858); assay: cell-based; type: cell-based
hNav1.5 [6] = target: T4, hNav1.5 (Homo sapiens, UniProt Q14524); assay: cell-based; type: cell-based
hNav1.8 = hNav1.8 (Homo sapiens, UniProt Q9Y5Y9); assay: cell-based; type: cell-based
hNav1.4 [7] = target: T1, hNav1.4; assay: cell-based; conditions: for IC50: IonWorks Quattro, read-out: IC50 Nav1.4
[8] = mouse plasma, 37° C., incubation time 0 hr (normalisation point)
in vitro [9] = conditions: mouse, plasma
hNav1.5 [10] = target: T4, hNav1.5; assay: cell-based; conditions: PatchXpress; * = at high concentrations compound would wash off slowly or not at all; read-out: PX hNav1.5 Tonic IC50
hNav1.5 [11] = target: T4, hNav1.5; assay: cell-based; conditions: IonWorks Quattro; read-out: IC50 Nav1.5
hNav1.7 [12] = target: T3, hNav1.7; assay: cell-based; conditions: IonWorks Quattro; read-out: IC50 Nav1.7
hNav1.3 [13] = target: T2, hNav1.3; assay: cell-based; conditions: IonWorks Quattro; read-out: IC50 Nav1.3
hNav1.4 [14] = target: T1, hNav1.4; assay: cell-based; conditions: PatchXpress; * = at high concentrations compound would wash off slowly or not at all; read-out: PX hNav1.4 Tonic IC50
in vitro [15] = conditions: rat, plasma
[16] = rat plasma, 37° C., incubation time 0 hr (normalisation point)
hNav1.7 [17] = target: T3, hNav1.7; assay: cell-based; type: cell-based; conditions: PatchXpress; * = at high concentrations compound would wash off slowly or not at all; read-out: PX hNav1.7 Tonic IC50
[18] = system: central neuronal sodium channels in rat hippocampus neurons; conditions: cited from earlier work
[19] = in vivo; cited from earlier work
mice = conditions: mouse, in vivo; cited from earlier work

T4 sequence (Q14524 whole entry): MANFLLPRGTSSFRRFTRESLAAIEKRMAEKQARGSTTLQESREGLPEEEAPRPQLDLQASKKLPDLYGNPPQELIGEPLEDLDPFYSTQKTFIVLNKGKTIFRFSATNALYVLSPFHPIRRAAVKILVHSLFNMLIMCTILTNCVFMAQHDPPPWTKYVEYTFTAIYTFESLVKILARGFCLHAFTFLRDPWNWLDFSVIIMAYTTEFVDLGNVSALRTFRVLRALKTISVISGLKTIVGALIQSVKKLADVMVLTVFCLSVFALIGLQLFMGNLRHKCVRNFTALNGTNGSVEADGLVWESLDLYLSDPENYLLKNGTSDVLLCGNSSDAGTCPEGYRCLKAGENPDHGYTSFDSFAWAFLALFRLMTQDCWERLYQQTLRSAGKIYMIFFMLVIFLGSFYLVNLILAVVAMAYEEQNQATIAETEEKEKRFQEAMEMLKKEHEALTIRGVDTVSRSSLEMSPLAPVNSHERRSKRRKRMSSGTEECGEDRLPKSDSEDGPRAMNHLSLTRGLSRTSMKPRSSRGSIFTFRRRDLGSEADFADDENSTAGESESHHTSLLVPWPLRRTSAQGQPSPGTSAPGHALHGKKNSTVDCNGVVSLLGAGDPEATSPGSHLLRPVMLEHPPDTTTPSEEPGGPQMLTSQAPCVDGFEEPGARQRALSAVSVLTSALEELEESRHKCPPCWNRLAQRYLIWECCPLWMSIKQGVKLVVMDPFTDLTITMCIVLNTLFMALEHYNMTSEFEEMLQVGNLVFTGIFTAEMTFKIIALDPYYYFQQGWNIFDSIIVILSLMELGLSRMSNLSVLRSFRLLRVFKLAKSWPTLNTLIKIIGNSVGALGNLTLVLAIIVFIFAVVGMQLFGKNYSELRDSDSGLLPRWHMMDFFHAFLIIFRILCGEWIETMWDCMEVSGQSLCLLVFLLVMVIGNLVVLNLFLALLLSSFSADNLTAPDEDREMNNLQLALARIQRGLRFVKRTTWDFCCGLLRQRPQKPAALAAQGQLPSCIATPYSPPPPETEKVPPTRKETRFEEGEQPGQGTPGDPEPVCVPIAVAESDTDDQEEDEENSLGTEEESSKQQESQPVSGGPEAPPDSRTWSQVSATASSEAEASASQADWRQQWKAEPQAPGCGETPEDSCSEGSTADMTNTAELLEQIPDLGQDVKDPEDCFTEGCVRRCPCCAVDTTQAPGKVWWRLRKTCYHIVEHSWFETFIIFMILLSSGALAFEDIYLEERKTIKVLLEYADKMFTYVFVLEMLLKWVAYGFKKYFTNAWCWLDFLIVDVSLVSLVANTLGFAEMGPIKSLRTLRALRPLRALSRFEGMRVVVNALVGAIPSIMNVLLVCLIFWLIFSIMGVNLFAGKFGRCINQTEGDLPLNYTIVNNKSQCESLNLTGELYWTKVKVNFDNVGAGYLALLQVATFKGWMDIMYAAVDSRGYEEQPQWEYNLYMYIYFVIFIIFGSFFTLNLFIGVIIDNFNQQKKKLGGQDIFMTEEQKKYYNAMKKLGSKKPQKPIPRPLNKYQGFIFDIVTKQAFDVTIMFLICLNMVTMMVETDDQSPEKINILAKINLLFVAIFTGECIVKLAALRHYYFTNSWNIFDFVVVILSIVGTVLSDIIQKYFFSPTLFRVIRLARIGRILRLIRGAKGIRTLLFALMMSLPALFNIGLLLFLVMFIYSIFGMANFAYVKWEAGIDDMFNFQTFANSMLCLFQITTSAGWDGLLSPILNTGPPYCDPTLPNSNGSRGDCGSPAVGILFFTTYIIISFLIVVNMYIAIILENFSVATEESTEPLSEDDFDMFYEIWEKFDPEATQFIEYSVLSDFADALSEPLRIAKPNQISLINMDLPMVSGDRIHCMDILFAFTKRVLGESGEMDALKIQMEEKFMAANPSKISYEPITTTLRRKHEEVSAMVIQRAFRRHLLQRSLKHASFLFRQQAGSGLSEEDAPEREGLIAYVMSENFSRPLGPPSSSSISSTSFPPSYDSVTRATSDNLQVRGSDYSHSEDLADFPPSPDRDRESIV
T2 sequence (Q9NY46 whole entry): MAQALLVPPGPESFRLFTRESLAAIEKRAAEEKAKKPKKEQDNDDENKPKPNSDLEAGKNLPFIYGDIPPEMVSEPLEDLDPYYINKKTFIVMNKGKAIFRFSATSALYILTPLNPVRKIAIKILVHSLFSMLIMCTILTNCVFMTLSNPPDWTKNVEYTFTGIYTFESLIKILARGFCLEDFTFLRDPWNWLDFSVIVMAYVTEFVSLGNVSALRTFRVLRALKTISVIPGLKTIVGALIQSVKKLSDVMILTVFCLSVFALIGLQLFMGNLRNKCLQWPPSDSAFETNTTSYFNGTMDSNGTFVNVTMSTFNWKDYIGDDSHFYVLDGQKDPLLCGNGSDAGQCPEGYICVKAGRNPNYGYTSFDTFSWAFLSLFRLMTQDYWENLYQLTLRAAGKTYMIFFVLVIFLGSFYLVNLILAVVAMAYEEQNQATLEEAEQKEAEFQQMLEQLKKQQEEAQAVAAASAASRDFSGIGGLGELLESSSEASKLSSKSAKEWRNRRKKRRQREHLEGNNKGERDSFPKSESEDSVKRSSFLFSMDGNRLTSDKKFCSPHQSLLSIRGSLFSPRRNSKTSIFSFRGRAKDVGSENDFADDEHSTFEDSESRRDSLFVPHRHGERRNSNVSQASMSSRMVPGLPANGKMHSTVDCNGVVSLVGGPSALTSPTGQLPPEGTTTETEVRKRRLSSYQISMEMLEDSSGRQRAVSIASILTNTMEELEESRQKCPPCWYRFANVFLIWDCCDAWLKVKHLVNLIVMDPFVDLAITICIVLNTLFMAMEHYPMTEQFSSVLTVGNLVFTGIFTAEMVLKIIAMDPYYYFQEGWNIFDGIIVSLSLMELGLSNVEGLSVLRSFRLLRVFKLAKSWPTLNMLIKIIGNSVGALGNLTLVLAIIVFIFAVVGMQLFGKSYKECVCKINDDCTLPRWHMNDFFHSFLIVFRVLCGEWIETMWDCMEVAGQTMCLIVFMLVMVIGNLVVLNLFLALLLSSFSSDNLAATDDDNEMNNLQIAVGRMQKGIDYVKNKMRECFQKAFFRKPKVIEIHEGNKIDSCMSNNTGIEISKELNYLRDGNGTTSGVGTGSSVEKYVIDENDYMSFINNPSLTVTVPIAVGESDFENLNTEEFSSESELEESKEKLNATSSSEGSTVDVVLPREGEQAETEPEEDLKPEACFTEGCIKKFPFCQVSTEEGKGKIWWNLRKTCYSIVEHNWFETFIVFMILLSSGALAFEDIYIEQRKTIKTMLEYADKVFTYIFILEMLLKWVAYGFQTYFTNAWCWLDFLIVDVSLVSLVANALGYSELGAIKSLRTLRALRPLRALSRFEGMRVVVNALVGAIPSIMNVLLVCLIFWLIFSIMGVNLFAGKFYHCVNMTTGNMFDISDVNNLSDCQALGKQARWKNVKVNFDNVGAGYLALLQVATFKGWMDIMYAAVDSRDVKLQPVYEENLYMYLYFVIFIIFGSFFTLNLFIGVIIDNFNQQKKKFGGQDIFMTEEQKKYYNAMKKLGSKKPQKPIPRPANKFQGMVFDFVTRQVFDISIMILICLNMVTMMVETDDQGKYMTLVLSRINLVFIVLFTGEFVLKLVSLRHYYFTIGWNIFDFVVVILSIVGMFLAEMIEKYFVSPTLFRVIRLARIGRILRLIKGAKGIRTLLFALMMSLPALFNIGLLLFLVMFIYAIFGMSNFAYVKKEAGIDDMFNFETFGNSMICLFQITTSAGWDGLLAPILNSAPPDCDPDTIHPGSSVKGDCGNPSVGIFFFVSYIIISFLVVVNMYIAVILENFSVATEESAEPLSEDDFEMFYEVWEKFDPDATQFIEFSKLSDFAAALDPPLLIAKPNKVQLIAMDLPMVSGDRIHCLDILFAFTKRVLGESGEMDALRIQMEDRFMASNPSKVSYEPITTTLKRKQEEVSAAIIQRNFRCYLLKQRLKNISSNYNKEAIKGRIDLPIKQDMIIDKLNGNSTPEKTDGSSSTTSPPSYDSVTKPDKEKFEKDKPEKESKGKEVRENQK

Compound	IC50 (hNav1.4 [7]) [nM]	% Peptide Remaining [8] [%]	remaining at 2 h (in vitro [9]) [%]	remaining at 4 h (in vitro [9]) [%]	remaining at 6 h (in vitro [9]) [%]	remaining at 8 h (in vitro [9]) [%]	remaining at 24 h (in vitro [9]) [%]	IC50 (hNav1.5 [10])	IC50 (hNav1.5 [11])	IC50 (hNav1.7 [12])	IC50 (hNav1.3 [13]) [nM]	IC50 (hNav1.4 [14])	remaining at 2 h (in vitro [15]) [%]	remaining at 4 h (in vitro [15]) [%]	remaining at 6 h (in vitro [15]) [%]	remaining at 8 h (in vitro [15]) [%]	remaining at 24 h (in vitro [15]) [%]	% Peptide Remaining [16] [%]	IC50 (hNav1.7 [17])	further results
CC[C@H](C)[C@H](NC(=O)[C@@H](NC(=O)[C@H](CCCCN)NC(=O)[C@H](CCCNC(=N)N)NC(=O)[C@@H]1CSSC[C@@H]2NC(=O)[C@H](C)NC(=O)[C@H](CCCNC(=N)N)NC(=O)[C@H](CCCCN)NC(=O)[C@H](CO)NC(=O)[C@H](CC(=O)O)NC(=O)[C@@H]3CSSC[C@H](NC(=O)[C@H](CCCNC(=N)N)NC(=O)[C@H](CC(C)C)NC(=O)CNC(=O)[C@H](CCC(=O)O)NC(=O)[C@H](CSSC[C@H](NC(=O)[C@@H](N)Cc4ccc(O)cc4)C(=O)N[C@@H](CCC(N)=O)C(=O)N[C@@H](CCCCN)C(=O)N[C@@H](Cc4c[nH]c5ccccc45)C(=O)N[C@@H](CCSC)C(=O)N[C@@H](Cc4c[nH]c5ccccc45)C(=O)N[C@@H]([C@@H](C)O)C(=O)N3)NC2=O)C(=O)N[C@@H](CCCCN)C(=O)N[C@@H](CC(C)C)C(=O)N[C@@H](Cc2c[nH]c3ccccc23)C(=O)N1)[C@@H](C)CC)C(N)=O [SEQ ID NO: 2, JzTx-V(1-29), reference compound]																				block of hNav1.4 current (hNav1.4 [1]): completely blocked Nav1.4 current; also recorded: complete inhibition; block of hNav1.3 current (hNav1.3 [2]): completely blocked Nav1.3 current; also recorded: complete inhibition; block of TTX-sensitive Nav current [3]: completely blocked TTX-sensitive Nav current; also recorded: blocked nearly all TTX-sensitive Nav current; also recorded: almost complete inhibition; effect on TTX-resistant Nav current [4]: nominal effect on peak TTX-resistant current but prolonged the level of TTX-resistant current at 40 msec; also recorded: only partial inhibition; block of hNav1.7 current (hNav1.7 [5]): blocked all Nav1.7 current; inhibition of hNav1.7 current (hNav1.7 [5]): complete inhibition; block of hNav1.5 current (hNav1.5 [6]): blocked most Nav1.5 current; also recorded: nearly complete inhibition; inhibition of hNav1.8 current (hNav1.8): only partial inhibition
CC[C@H](C)[C@H](NC(=O)[C@H](CCCCN)NC(=O)[C@H](CCCNC(=N)N)NC(=O)[C@@H]1CSSC[C@@H]2NC(=O)[C@H](C)NC(=O)[C@H](CCCNC(=N)N)NC(=O)[C@H](CCCCN)NC(=O)[C@H](CO)NC(=O)[C@H](CC(=O)O)NC(=O)[C@@H]3CSSC[C@H](NC(=O)[C@H](CCC(=O)O)NC(=O)[C@H](CC(C)C)NC(=O)CNC(=O)[C@H](CCC(=O)O)NC(=O)[C@H](CSSC[C@H](NC(=O)[C@@H](N)Cc4ccc(O)cc4)C(=O)N[C@@H](CCC(N)=O)C(=O)N[C@@H](CCCCN)C(=O)N[C@@H](Cc4c[nH]c5ccccc45)C(=O)N[C@@H](CCSC)C(=O)N[C@@H](Cc4c[nH]c5ccccc45)C(=O)N[C@@H]([C@@H](C)O)C(=O)N3)NC2=O)C(=O)N[C@@H](CCCCN)C(=O)N[C@@H](CC(C)C)C(=O)N[C@@H](Cc2c[nH]c3ccccc23)C(=O)N1)C(=O)N[C@@H](Cc1c[nH]c2ccccc12)C(N)=O [compound 112]	> 5000	100	88	82	85	85	77	3420 nM and 3950 nM and 4410 nM and 1320 nM and 1620 nM	6900 nM	30 nM and 17 nM	3620	1130 nM and 824 nM and 1050 nM and 1350 nM and 2370 nM	95	93	92	89	70	100	2.8 nM and 0.67 nM and 1.3 nM and 0.5 nM and 1.41 nM and 2.15 nM and 1.82 nM and 2.12 nM	1.x/1.7, partially inactivated [3]: 1213; 1.x/1.7, partially inactivated ([3]; mTTX-S (fresh DRG) vs hNav1.7, partially inactivated): 917; IC50 (hNav1.7 [5]; WCPC, hNav1.7, partially inactivated, n=2): 0.23 nM; 1.x/1.7, partially inactivated (hNav1.7 [5]; hNav1.7 vs hNav1.7, partially inactivated): 1
CC[C@H](C)[C@H](NC(=O)[C@H](CO)NC(=O)[C@H](CCCCN)NC(=O)[C@H](CCCNC(=N)N)NC(=O)[C@@H]1CSSC[C@@H]2NC(=O)[C@H](C)NC(=O)[C@H](CCCNC(=N)N)NC(=O)[C@H](CCCCN)NC(=O)[C@H](CO)NC(=O)[C@H](CC(=O)O)NC(=O)[C@@H]3CSSC[C@H](NC(=O)[C@H](CCC(=O)O)NC(=O)[C@H](CC(C)C)NC(=O)CNC(=O)[C@H](CCC(=O)O)NC(=O)[C@H](CSSC[C@H](NC(=O)[C@@H](N)Cc4ccc(O)cc4)C(=O)N[C@@H](CCC(N)=O)C(=O)N[C@@H](CCCCN)C(=O)N[C@@H](Cc4c[nH]c5ccccc45)C(=O)N[C@@H](CCSC)C(=O)N[C@@H](Cc4c[nH]c5ccccc45)C(=O)N[C@@H]([C@@H](C)O)C(=O)N3)NC2=O)C(=O)N[C@@H](CCCCN)C(=O)N[C@@H](CC(C)C)C(=O)N[C@@H](Cc2c[nH]c3ccccc23)C(=O)N1)C(N)=O [compound 138]	> 5000	100	64	61	55	51	50	> 10000 nM and 14600 nM	13900 nM and 9200 nM	80 nM and 150 nM	> 5000	4790 nM and 3580 nM and 2970 nM	90	81	71	67	59	100	3.3 nM and 2 nM and 0.4 nM	Nav1.4/Nav1.7 (hNav1.4 [7]; ratio of IonWorks Quattro IC50 values): 62 and 34
Huwentoxin-IV [SEQ ID NO: 528]																				less potent against central neuronal sodium channels [18]: 12 fold
YCQKWMWTCDSERKCCEGMVCRLWCKKKLW [SEQ ID NO: 531, ProTx-II]																				efficacy in mechanical hyperalgesia study [19]: not efficacious
μ-Conotoxin KIIIA [SEQ ID NO: 530]																				motor impairment (mice): some motor impairment but not paralytic activity

Source: patent US9636418B2 (priority 2013, dated 2017)
